Molecules are shown by their SMILES.

What is called IC50 is the midpoint of a concentration-inhibition curve. The term microsomal CLint denotes the capacity of the preparation to metabolise the compound, expressed as a volume cleared per time. The low end stands for slow turnover, the high end for rapid turnover. For orientation: hepatocyte CLint means the capacity of the preparation to metabolise the compound, expressed as a volume cleared per time. Low readings indicate slow turnover, high ones rapid turnover.

Series [1] addresses Sodium-dependent serotonin transporter (Homo sapiens, UniProt P31645). Kind of series: Inhibition of [3H]5-HT uptake at human recombinant 5HT transporter expressed in HEK293 cells. Format: cell-based.
Series [2] deals with Sodium-dependent noradrenaline transporter (Homo sapiens, UniProt P23975). Kind of series: Inhibition of [3H]NA uptake at human recombinant NA transporter expressed in HEK293 cells. It is filed as cell-based.
Series [3] deals with Sodium-dependent dopamine transporter (Homo sapiens, UniProt Q01959). Kind of series: Inhibition of [3H]DA uptake at human recombinant DAT expressed in HEK293 cells. It is filed as cell-based.
Series [4] can be described thus: Intrinsic clearance in human liver microsomes. Format: ADME, Microsome. On the technique in general: Liver microsomes are a subcellular fraction often used to study metabolism.
A short description of series [5]: Intrinsic clearance per 10^6 cells in human hepatocytes. It is filed as ADME, cell-based, Liver, Hepatocyte.
The target in another series is Cytochrome P450 2D6 (Homo sapiens, UniProt P10635). Kind of series: Inhibition of CYP2D6. Format: ADME.
A further series deals with Cytochrome P450 3A4 (Homo sapiens, UniProt P08684). Kind of series: Inhibition of CYP3A4. Format: ADME.
Sequence of Cytochrome P450 3A4 (P08684 whole entry): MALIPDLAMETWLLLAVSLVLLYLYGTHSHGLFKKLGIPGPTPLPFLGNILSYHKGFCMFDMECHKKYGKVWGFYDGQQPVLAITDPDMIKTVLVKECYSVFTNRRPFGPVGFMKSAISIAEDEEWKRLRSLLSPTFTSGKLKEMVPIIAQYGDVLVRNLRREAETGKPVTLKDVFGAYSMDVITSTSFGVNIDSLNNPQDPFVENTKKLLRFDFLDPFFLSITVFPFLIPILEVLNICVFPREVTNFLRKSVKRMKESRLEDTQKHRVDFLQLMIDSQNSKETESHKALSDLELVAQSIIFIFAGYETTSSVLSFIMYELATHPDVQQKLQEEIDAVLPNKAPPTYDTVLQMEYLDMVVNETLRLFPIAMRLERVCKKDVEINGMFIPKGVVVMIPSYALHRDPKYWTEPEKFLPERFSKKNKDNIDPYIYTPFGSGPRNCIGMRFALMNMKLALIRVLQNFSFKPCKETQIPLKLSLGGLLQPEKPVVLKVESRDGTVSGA

Sequence of Sodium-dependent noradrenaline transporter (P23975 whole entry): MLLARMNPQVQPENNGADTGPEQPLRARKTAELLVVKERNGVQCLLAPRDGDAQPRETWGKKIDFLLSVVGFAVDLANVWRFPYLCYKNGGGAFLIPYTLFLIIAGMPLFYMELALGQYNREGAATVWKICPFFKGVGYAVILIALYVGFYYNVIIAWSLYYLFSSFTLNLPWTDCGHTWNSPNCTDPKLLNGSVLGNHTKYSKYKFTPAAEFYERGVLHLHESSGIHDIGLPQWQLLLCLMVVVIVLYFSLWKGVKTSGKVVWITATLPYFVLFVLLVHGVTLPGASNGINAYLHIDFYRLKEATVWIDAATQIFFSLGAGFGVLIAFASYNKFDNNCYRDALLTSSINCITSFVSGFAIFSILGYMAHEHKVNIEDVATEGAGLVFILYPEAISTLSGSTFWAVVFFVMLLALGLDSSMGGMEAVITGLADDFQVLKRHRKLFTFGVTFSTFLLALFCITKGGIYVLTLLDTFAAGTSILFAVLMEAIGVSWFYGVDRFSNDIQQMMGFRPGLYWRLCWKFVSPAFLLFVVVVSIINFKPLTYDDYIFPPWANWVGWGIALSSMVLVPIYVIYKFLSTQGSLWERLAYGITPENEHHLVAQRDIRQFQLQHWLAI
Sequence of Sodium-dependent serotonin transporter (P31645 whole entry): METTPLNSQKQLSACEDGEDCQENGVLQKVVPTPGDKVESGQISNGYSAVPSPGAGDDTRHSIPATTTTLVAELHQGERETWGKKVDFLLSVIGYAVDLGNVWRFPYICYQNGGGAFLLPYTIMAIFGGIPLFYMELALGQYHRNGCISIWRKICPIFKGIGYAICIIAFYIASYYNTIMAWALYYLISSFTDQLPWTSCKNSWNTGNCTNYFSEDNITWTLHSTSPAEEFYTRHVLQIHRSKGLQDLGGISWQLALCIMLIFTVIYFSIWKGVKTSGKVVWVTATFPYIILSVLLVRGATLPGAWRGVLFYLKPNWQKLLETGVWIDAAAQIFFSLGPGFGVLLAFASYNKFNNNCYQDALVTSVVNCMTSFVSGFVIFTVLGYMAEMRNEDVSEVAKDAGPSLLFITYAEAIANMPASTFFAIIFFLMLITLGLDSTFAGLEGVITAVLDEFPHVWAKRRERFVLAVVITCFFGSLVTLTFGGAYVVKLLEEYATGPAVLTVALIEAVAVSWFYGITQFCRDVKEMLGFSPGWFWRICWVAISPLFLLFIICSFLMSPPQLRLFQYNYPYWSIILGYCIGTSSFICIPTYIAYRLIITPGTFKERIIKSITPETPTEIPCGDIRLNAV
Sequence of Sodium-dependent dopamine transporter (Q01959 whole entry): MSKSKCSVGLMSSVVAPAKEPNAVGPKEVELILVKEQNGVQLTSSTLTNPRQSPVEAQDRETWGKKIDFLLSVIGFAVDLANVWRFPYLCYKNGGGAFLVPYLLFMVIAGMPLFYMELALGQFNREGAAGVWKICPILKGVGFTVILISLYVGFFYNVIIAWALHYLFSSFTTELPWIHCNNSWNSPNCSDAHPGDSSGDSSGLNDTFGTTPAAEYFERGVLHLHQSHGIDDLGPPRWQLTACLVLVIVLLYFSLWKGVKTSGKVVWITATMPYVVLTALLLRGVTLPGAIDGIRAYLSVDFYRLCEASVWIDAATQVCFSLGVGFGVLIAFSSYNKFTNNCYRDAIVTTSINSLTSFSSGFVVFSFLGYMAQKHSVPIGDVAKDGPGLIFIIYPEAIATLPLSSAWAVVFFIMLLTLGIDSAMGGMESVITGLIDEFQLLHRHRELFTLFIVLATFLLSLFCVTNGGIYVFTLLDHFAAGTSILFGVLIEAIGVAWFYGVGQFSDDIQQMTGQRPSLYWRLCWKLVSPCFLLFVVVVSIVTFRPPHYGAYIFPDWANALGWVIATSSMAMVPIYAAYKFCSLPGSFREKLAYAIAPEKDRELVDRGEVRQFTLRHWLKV
Sequence of Cytochrome P450 2D6 (P10635 whole entry): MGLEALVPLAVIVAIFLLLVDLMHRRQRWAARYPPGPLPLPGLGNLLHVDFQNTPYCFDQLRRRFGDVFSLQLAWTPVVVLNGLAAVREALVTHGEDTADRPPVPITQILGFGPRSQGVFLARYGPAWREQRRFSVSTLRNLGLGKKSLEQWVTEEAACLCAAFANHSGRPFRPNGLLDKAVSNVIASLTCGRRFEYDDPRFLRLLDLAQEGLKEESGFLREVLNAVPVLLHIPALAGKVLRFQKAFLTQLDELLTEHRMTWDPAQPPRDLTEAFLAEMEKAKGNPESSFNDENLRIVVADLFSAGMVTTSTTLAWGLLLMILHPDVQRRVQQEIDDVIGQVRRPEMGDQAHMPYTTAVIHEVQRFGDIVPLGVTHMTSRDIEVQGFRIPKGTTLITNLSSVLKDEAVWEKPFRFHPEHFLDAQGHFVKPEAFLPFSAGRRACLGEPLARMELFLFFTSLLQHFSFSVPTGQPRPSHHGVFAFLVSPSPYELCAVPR

For the compound `CNCc1cnccc1Oc1ccc(Cl)cc1Br`, the concentration for half-maximal inhibition (IC50) was 23 nM in series [1] and 85 nM in series [2].
For `CN(C)Cc1cnccc1Oc1ccc(Cl)cc1Br`, the concentration for half-maximal inhibition (IC50) in series [1] was 4 nM; in series [2] it was 26 nM; in series [3], 1970 nM.
On to `CNCc1cnc(C)cc1Oc1ccc(Cl)cc1C`, for which the IC50 in series [1] worked out at 6 nM; in series [2], 51 nM.
In the case of `CCc1cc(Cl)ccc1Oc1cc(C)ncc1CN(C)C`, the results for the IC50 in series [1], in series [2] and in series [3] were 19 nM, 30 nM and greater than 34000 nM, respectively.
`CNCc1cnccc1Oc1ccc(Cl)cc1C`: the IC50 in series [1] worked out at 14 nM; in series [2], 246 nM.
Take `Cc1cc(Oc2ccc(Cl)cc2C)c(CN(C)C)cn1`: the half-maximal inhibitory concentration (IC50) in series [1] is 6 nM; in series [2], 26 nM; in series [3], 1680 nM; against Cytochrome P450 2D6, greater than 10000 nM; at Cytochrome P450 3A4 it was greater than 10000 nM. Also, in series [4], the microsomal CLint is less than 7 µL/min/mg. The same compound gave a hepatocyte CLint in series [5] of less than 5 µL/min/1e6 cells.
Regarding `CCc1cc(Cl)ccc1Oc1ccncc1CNC`, the IC50 in series [1] came to 46 nM; in series [2] it was 86 nM.
In the case of `COc1cc(Cl)ccc1Oc1ccncc1CN(C)C`, the IC50 in series [1] was 6 nM; in series [2], 47 nM; in series [3], 10200 nM.
For the compound `CNCc1cnccc1Oc1ccc(Cl)cc1OC`, the IC50 in series [1] was found to be 14 nM; in series [2], 282 nM.
For `CNCc1cnccc1Oc1ccc(Cl)cc1Cl`, the results for the IC50 in series [1] and in series [2] were 39 nM and 159 nM, respectively.
Regarding `CN(C)Cc1cnccc1Oc1ccc(Cl)cc1Cl`, the half-maximal inhibitory concentration (IC50) in series [1] was determined as 8 nM; in series [2], 25 nM; in series [3], 2430 nM.
Turning to `CCOc1cc(Cl)ccc1Oc1ccncc1CNC`, the results for the IC50 in series [1] and in series [2] were 24 nM and 394 nM, respectively.
`CNCc1cnc(C)cc1Oc1ccc(C)cc1OC`: the IC50 in series [1] was 18 nM; in series [2], 257 nM.
Consider `CNCc1cnc(C)cc1Oc1ccc(F)cc1C`, for which the IC50 in series [1] is 231 nM; in series [2], greater than 400 nM.
As to `Cc1cc(Cl)ccc1Oc1ccncc1CN(C)C`, the IC50 came to 3 nM in series [1], 36 nM in series [2] and 3230 nM in series [3].
For `CCc1cc(Cl)ccc1Oc1ccncc1CN(C)C` the same measures were 11 nM, 18 nM and greater than 38000 nM.
For the compound `CNCc1cc(C(=O)N(C)C)ccc1Oc1ccc(Cl)cc1OC`, the results for the IC50 in series [1] and in series [3] were 7 nM and greater than 4000 nM, respectively. For the same compound, in series [5], the hepatocyte CLint is 21 µL/min/1e6 cells.
Turning to `CNCc1cnc(C)cc1Oc1ccc(Cl)cc1Br`, the 50% inhibitory concentration (IC50) was 10 nM in series [1] and 38 nM in series [2].
The like results for `CNCc1cnc(C)cc1Oc1ccc(Cl)cc1OC` were, in that order, 4 nM and 83 nM.
Consider `COc1cc(Cl)ccc1Oc1cc(C)ncc1CN(C)C`, for which the IC50 in series [1] is 13 nM; in series [2], 26 nM; in series [3], 5040 nM; against Cytochrome P450 2D6 it was greater than 10000 nM; on Cytochrome P450 3A4 it was greater than 10000 nM. This compound yielded a microsomal CLint in series [4] of less than 7 µL/min/mg. Also, the hepatocyte CLint in series [5] is less than 5 µL/min/1e6 cells.
Consider `CCc1cc(Cl)ccc1Oc1cc(C)ncc1CNC`, for which the concentration for half-maximal inhibition (IC50) in series [1] is 20 nM; in series [2], 22 nM; in series [3], 34100 nM.

(Values after ChEMBL document CHEMBL1145616, “Pyridyl-phenyl ether monoamine reuptake inhibitors: Impact of lipophilicity on dual SNRI pharmacology and off-target promiscuity” (Bioorg Med Chem Lett, 2008).)
